Measurements published in US20260256792A1, “TREATMENT OF CHRONIC SPONTANEOUS URTICARIA BY ADMINISTERING (R)-2-[3-[4-AMINO-3-(2-FLUORO-4-PHENOXY-PHENYL)PYRAZOLO[3,4-D]PYRIMIDIN-1-YL]PIPERIDINE-1-CARBONYL]-4-METHYL-4-[4-(OXETAN-3-YL)PIPERAZIN-1-YL]PENT-2-ENENITRILE” (priority 2023, published 2026).

Test system: moderate-to-severe chronic spontaneous urticaria (CSU)
Experiment: Phase 2 CSU study: urticaria activity score over 7 days (UAS7)
Format: in vivo, human
Parameters: key to UAS7 Median / UAS7 Change from baseline Median / UAS7 change from baseline, Q1 / UAS7 change from baseline, Q3 / UAS7 change from baseline, Max / UAS7 Change from baseline LS Mean (SE): UAS7 points; daily UAS score ranges 0–6 points/day, over 7 days
Text: The study comprises a 12 week, randomized, double-blind, placebo-controlled, multi-center, dose-ranging efficacy and safety phase, followed by a 40 week open label extension (OLE) phase (see FIG. 1). The study consists of three phases and an optional OLE phase. […] Clinically, CSU is characterized by the spontaneous and recurrent appearance of pruritic hives. The proposed primary endpoints were the UAS7 at Week 12 in EU and EU reference countries and the ISS7 in the US. Regardless of where a participant was from, all assessments were the same. The UAS7 score is a composite score containing both the HSS7 and the ISS7. This allowed a global assessment of the two key components of urticaria: hives and itch. […] The UAS is a validated PRO measure. […] The daily UAS scores range from 0 to 6 point/day. […] Patients were to complete the UAS using the e-diary. […] The following secondary endpoints were to be analyzed using the same approach as for the primary endpoint: • Change from baseline in UAS7 at Week 4 • Change from baseline in UAS7 at Week 12 (for US and US reference countries) • Change from baseline in ISS7 at Week 12 (except US and US reference countries) • Change from baseline in HSS7 at Week 12 The following responder secondary endpoints were to be analyzed using the Cochran-Mantel-Haenszel test adjusted by region: • Proportion of participants with UAS7<6 at Week 12 • Proportion of participants with UAS7=0 at Week 12 Participants who received selected prohibited medications and/or rescue medications were to be considered as non-responders for time points after the medication usage. For other participants, all available data including those collected during the off-treatment period were to be used to determine the responder/non-responder status. Missing data were to be considered as non-responders.

[1] = Week 10, 400 mg TID, ITT population
[2] = Week 10, 400 mg TID, Omalizumab-Naïve
[3] = Week 10, 400 mg TID, Prior Omalizumab Use
[4] = Week 10, 400 mg TID, omalizumab-naive participants
[5] = Week 11, 400 mg BID, ITT population
[6] = Week 11, 400 mg BID, Omalizumab-Naïve
[7] = Week 11, 400 mg BID, Prior Omalizumab Use
[8] = Week 11, 400 mg BID, omalizumab-naive participants
[9] = Week 11, 400 mg QPM, ITT population
[10] = Week 11, 400 mg QPM, Omalizumab-Naïve
[11] = Week 11, 400 mg QPM, Prior Omalizumab Use
[12] = Week 11, 400 mg QPM, omalizumab-naive participants
[13] = Week 11, 400 mg TID, ITT population
[14] = Week 11, 400 mg TID, Omalizumab-Naïve

CC(C)(C=C(C#N)C(=O)N1CCC[C@@H](n2nc(-c3ccc(Oc4ccccc4)cc3F)c3c(N)ncnc32)C1)N1CCN(C2COC2)CC1 [rilzabrutinib, (R)-2-[3-[4-amino-3-(2-fluoro-4-phenoxy-phenyl)pyrazolo[3,4-d]pyrimidin-1-yl]piperidine-1-carbonyl]-4-methyl-4-[4-(oxetan-3-yl)piperazin-1-yl]pent-2-enenitrile]
Non-responder, UAS7 reduction from baseline of 10 points or more [1]: 14 (34.1) n (%) | OR for rilzabrutinib vs. placebo, UAS7 reduction of 10 points or more [1]: 2.018 | RRD (%) for rilzabrutinib vs. placebo, UAS7 reduction of 10 points or more [1]: 15.7 % | Responder, UAS7 reduction from baseline of 10 points or more [1]: 27 (65.9) n (%) | UAS7 Change from baseline Median [2]: −20.00 | UAS7 Mean (SD) [2]: 12.61 (9.89) | UAS7 Median [2]: 12.83 | UAS7 Percent change from baseline Mean (SD) [2]: −58.08 (31.82) % | UAS7 Percent change from baseline Median [2]: −59.49% | UAS7 Change from baseline Mean (SD) [3]: −25.19 (15.27) | UAS7 Change from baseline Median [3]: −25.08 | UAS7 Mean (SD) [3]: 7.83 (11.43) | UAS7 Median [3]: 4.00 | UAS7 Percent change from baseline Mean (SD) [3]: −73.42 (30.92) % | UAS7 Percent change from baseline Median [3]: −84.09% | Non-responder, UAS7 reduction from baseline of 10 points or more [4]: 12 (34.3) n (%) | OR for rilzabrutinib vs. placebo, UAS7 reduction of 10 points or more [4]: 2.327 | RRD (%) for rilzabrutinib vs. placebo, UAS7 reduction of 10 points or more [4]: 19.8 % | Responder, UAS7 reduction from baseline of 10 points or more [4]: 23 (65.7) n (%) | Non-responder, UAS7 reduction from baseline of 10 points or more [5]: 19 (46.3) n (%) | OR for rilzabrutinib vs. placebo, UAS7 reduction of 10 points or more [5]: 1.009 | RRD (%) for rilzabrutinib vs. placebo, UAS7 reduction of 10 points or more [5]: 0.2 % | Responder, UAS7 reduction from baseline of 10 points or more [5]: 22 (53.7) n (%) | UAS7 Change from baseline Mean (SD) [6]: −14.86 (11.83) | UAS7 Change from baseline Median [6]: −19.00 | UAS7 Mean (SD) [6]: 15.06 (13.80) | UAS7 Percent change from baseline Mean (SD) [6]: −51.82 (39.20) % | UAS7 Percent change from baseline Median [6]: −57.14% | UAS7 Change from baseline Mean (SD) [7]: −20.43 (19.00) | UAS7 Change from baseline Median [7]: −25.00 | UAS7 Mean (SD) [7]: 11.57 (15.45) | UAS7 Median [7]: 2.00 | UAS7 Percent change from baseline Mean (SD) [7]: −59.15 (51.57) % | UAS7 Percent change from baseline Median [7]: −92.59% | Non-responder, UAS7 reduction from baseline of 10 points or more [8]: 16 (45.7) n (%) | OR for rilzabrutinib vs. placebo, UAS7 reduction of 10 points or more [8]: 1.183 | RRD (%) for rilzabrutinib vs. placebo, UAS7 reduction of 10 points or more [8]: 4.4 % | Responder, UAS7 reduction from baseline of 10 points or more [8]: 19 (54.3) n (%) | Non-responder, UAS7 reduction from baseline of 10 points or more [9]: 19 (50.0) n (%) | OR for rilzabrutinib vs. placebo, UAS7 reduction of 10 points or more [9]: 0.945 | RRD (%) for rilzabrutinib vs. placebo, UAS7 reduction of 10 points or more [9]: −1.3 % | Responder, UAS7 reduction from baseline of 10 points or more [9]: 19 (50.0) n (%) | UAS7 Change from baseline Mean (SD) [10]: −11.28 (9.60) | UAS7 Change from baseline Median [10]: −11.00 | UAS7 Mean (SD) [10]: 21.17 (11.16) | UAS7 Median [10]: 20.00 | UAS7 Percent change from baseline Mean (SD) [10]: −35.34 (30.18) % | UAS7 Percent change from baseline Median [10]: −34.19% | UAS7 Change from baseline Mean (SD) [11]: −23.00 (NC) | UAS7 Change from baseline Median [11]: −23.00 | UAS7 Mean (SD) [11]: 18.00 (NC) | UAS7 Median [11]: 18.00 | UAS7 Percent change from baseline Mean (SD) [11]: −56.10 (NC) % | UAS7 Percent change from baseline Median [11]: −56.10% | Non-responder, UAS7 reduction from baseline of 10 points or more [12]: 19 (51.4) n (%) | OR for rilzabrutinib vs. placebo, UAS7 reduction of 10 points or more [12]: 0.946 | RRD (%) for rilzabrutinib vs. placebo, UAS7 reduction of 10 points or more [12]: −1.3 % | Responder, UAS7 reduction from baseline of 10 points or more [12]: 18 (48.6) n (%) | Non-responder, UAS7 reduction from baseline of 10 points or more [13]: 14 (34.1) n (%) | OR for rilzabrutinib vs. placebo, UAS7 reduction of 10 points or more [13]: 1.624 | RRD (%) for rilzabrutinib vs. placebo, UAS7 reduction of 10 points or more [13]: 10.3 % | Responder, UAS7 reduction from baseline of 10 points or more [13]: 27 (65.9) n (%) | UAS7 Change from baseline Median [14]: −17.00 | UAS7 Median [14]: 13.00 | UAS7 Percent change from baseline Mean (SD) [14]: −56.01 (34.22) % | UAS7 Percent change from baseline Median [14]: −60.00%
